Reference: US20130172378A1, “Combination of BRAF and VEGF Inhibitors” (GlaxoSmithKline LLC, priority 2010, published 2013)

What was measured:
Assay type in all cases: in vivo, CD-1 nude mice
[1] = Body weight of nude mice bearing A375P F11s xenografts during treatment; conditions: in g (unit assumed)
Experimental: (§1) Female CD-1 nude mice of 6-8 weeks in age were used in these studies; all mice were obtained from Charles River Laboratories (Wilmington, Del.). Animals were housed in pathogen free conditions and handled with aseptic technique.
(§2) Mice with similar sized tumors (100-300 mm^3) were identified. The length and width of the tumors were measured by handheld calipers and body weights of the mice were measured using a bench top weighing scale. Tumor volumes were calculated based on the following formula: tumor volume=(Length×Width^2)/2. Mice were block randomized into the required number of dosing groups (n=8 mice/group). The randomization process ensured that the average tumor volume for each dosing group was approximately equal at the beginning of the study and mice with differing tumor volumes were evenly distributed. Mice were placed in groups of eight accordingly and dosed with either vehicle or compound for 36 days either once or twice daily, as summarised in the table below. Mice were weighed and tumors measured twice weekly for the duration of the study using Studylog animal study management software (Studylog Systems, Inc., South San Francisco, Calif., USA).

[2] = system: A375P F11s tumor xenografts (human melanoma, BRAF V600E); test: A375P F11s melanoma tumor xenograft efficacy in nude mice
[3] = system: A375P F11s tumor xenografts (human melanoma, BRAF V600E); test: as above; remark: listed apart in the source
Experimental: as §1
The A375P F11s cell lines were grown in RPMI growth medium supplemented with 10% fetal bovine serum (FBS), 1% sodium pyruvate and 1% penicillin-streptomycin in a humidified 37° C. chamber with 5% CO2. Cells were expanded to obtain the large numbers of cells required for each injection; cells were grown in log phase, without reaching confluency and passaged regularly.
Detached cells were collected, centrifuged (1500 rpm, 5 min, 4° C.) and rinsed to remove the trypsin solution. Cells were re-suspended in PBS without magnesium or calcium and counted.
Compounds were administered in vehicles as described below.
as §2
Tumor volumes were calculated based on the following formula: tumor volume=(Length×Width^2)/2. Tumor growth curves were created from the mean±standard error of the mean, with n=8 animals per group. The percentage of tumor growth inhibition was calculated on the final day of dosing using the following formula: 1−(tumor volume in drug-treated population/tumor volume in vehicle-treated control population).

[4] = group 3: Compound B 10 mg/kg PO QD, study day 0
[5] = group 3: Compound B 10 mg/kg PO QD, study day 3
[6] = group 3: Compound B 10 mg/kg PO QD, study day 7
[7] = group 3: Compound B 10 mg/kg PO QD, study day 9
[8] = group 3: Compound B 10 mg/kg PO QD, study day 15
[9] = group 3: Compound B 10 mg/kg PO QD, study day 18
[10] = group 3: Compound B 10 mg/kg PO QD, study day 22
[11] = group 3: Compound B 10 mg/kg PO QD, study day 25
[12] = group 3: Compound B 10 mg/kg PO QD, study day 28
[13] = group 3: Compound B 10 mg/kg PO QD, study day 31
[14] = group 4: Compound B 30 mg/kg PO QD, study day 0
[15] = group 4: Compound B 30 mg/kg PO QD, study day 3
[16] = group 4: Compound B 30 mg/kg PO QD, study day 7
[17] = group 4: Compound B 30 mg/kg PO QD, study day 9
[18] = group 4: Compound B 30 mg/kg PO QD, study day 15
[19] = group 4: Compound B 30 mg/kg PO QD, study day 18
[20] = group 4: Compound B 30 mg/kg PO QD, study day 22
[21] = group 4: Compound B 30 mg/kg PO QD, study day 25
[22] = group 4: Compound B 30 mg/kg PO QD, study day 28
[23] = group 4: Compound B 30 mg/kg PO QD, study day 31
[24] = group 4: Compound B 30 mg/kg PO QD, study day 35
[25] = group 4: Compound B 30 mg/kg PO QD, study day 37

Q: With `Cc1ccc(Nc2nccc(N(C)c3ccc4c(C)n(C)nc4c3)n2)cc1S(N)(=O)=O` [Compound A, 5-[[4-[(2,3-dimethyl-2H-indazol-6-yl)methylamino]-2-pyrimidinyl]amino]-2-methylbenzenesulfonamide] as the molecule, how does the “Mean body weight of nude mice” value ([1]; group 2: Compound A 100 mg/kg PO BID, study day 0) read?
A: 24.98

Q: And the “Mean body weight of nude mice” value ([1]; group 2: Compound A 100 mg/kg PO BID, study day 3)?
A: 25.13

Q: And the “Mean body weight of nude mice” value ([1]; group 2: Compound A 100 mg/kg PO BID, study day 7)?
A: 25.63

Q: What about the “Mean body weight of nude mice” value ([1]; group 2: Compound A 100 mg/kg PO BID, study day 15) of the same molecule?
A: 24.83

Q: And the “Mean body weight of nude mice” value ([1]; group 2: Compound A 100 mg/kg PO BID, study day 18)?
A: 25.35

Q: What about the “Mean body weight of nude mice” value ([1]; group 2: Compound A 100 mg/kg PO BID, study day 22) of the same molecule?
A: 24.71

Q: And the “Mean body weight of nude mice” value ([1]; group 2: Compound A 100 mg/kg PO BID, study day 25)?
A: 24.79

Q: What about the “Mean body weight of nude mice” value ([1]; group 2: Compound A 100 mg/kg PO BID, study day 28) of the same molecule?
A: 24.91

Q: What about the “Mean body weight of nude mice” value ([1]; group 2: Compound A 100 mg/kg PO BID, study day 35) of the same molecule?
A: 24.95

Q: And the “Mean body weight of nude mice” value ([1]; group 2: Compound A 100 mg/kg PO BID, study day 37)?
A: 25.00

Q: With `CC(C)(C)c1nc(-c2cccc(NS(=O)(=O)c3c(F)cccc3F)c2F)c(-c2ccnc(N)n2)s1` [Compound B, N-{3-[5-(2-Amino-4-pyrimidinyl)-2-(1,1-dimethylethyl)-1,3-thiazol-4-yl]-2-fluorophenyl}-2,6-difluorobenzenesulfonamide] as the molecule, how does the “Mean body weight of nude mice” value [1, 4] read?
A: 25.71

Q: What about the “Mean body weight of nude mice” value [1, 5] of the same molecule?
A: 26.14

Q: And the “Mean body weight of nude mice” value [1, 6]?
A: 26.13

Q: What about the “Mean body weight of nude mice” value [1, 7] of the same molecule?
A: 26.29

Q: And the “Mean body weight of nude mice” value [1, 8]?
A: 25.69

Q: And the “Mean body weight of nude mice” value [1, 9]?
A: 26.44

Q: What about the “Mean body weight of nude mice” value [1, 10] of the same molecule?
A: 26.00

Q: And the “Mean body weight of nude mice” value [1, 11]?
A: 26.45

Q: What about the “Mean body weight of nude mice” value [1, 12] of the same molecule?
A: 26.55

Q: And the “Mean body weight of nude mice” value [1, 13]?
A: 27.11

Q: And the “Mean body weight of nude mice” value [1, 14]?
A: 25.49

Q: And the “Mean body weight of nude mice” value [1, 15]?
A: 25.38

Q: And the “Mean body weight of nude mice” value [1, 16]?
A: 25.15

Q: What about the “Mean body weight of nude mice” value [1, 17] of the same molecule?
A: 25.35

Q: And the “Mean body weight of nude mice” value [1, 18]?
A: 24.46

Q: What about the “Mean body weight of nude mice” value [1, 19] of the same molecule?
A: 24.84

Q: And the “Mean body weight of nude mice” value [1, 20]?
A: 24.67

Q: What about the “Mean body weight of nude mice” value [1, 21] of the same molecule?
A: 24.87

Q: And the “Mean body weight of nude mice” value [1, 22]?
A: 24.79

Q: And the “Mean body weight of nude mice” value [1, 23]?
A: 24.83

Q: And the “Mean body weight of nude mice” value [1, 24]?
A: 24.41

Q: And the “Mean body weight of nude mice” value [1, 25]?
A: 24.65

Q: And the “Mean A375P F11s tumor volume” value [2, 4]?
A: 178.5 mm^3

Q: And the “Percent Inhibition of A375P F11s tumor volume compared to vehicle treated mice” value (shortened to “Percent Inhibition”) [2, 4]?
A: −3.6%

Q: And the “Mean A375P F11s tumor volume” value [2, 5]?
A: 164.5 mm^3

Q: And the “Percent Inhibition” value [2, 5]?
A: 34.3%

Q: What about the “Percent Inhibition” value [2, 6] of the same molecule?
A: 39.0%

Q: And the “Mean A375P F11s tumor volume” value [2, 7]?
A: 247.5 mm^3

Q: And the “Percent Inhibition” value [2, 7]?
A: 36.6%

Q: What about the “Mean A375P F11s tumor volume” value [2, 8] of the same molecule?
A: 350.4 mm^3

Q: What about the “Percent Inhibition” value [2, 8] of the same molecule?
A: 45.3%

Q: What about the “Mean A375P F11s tumor volume” value [2, 9] of the same molecule?
A: 469.7 mm^3

Q: What about the “Percent Inhibition” value [2, 9] of the same molecule?
A: 35.4%

Q: And the “Mean A375P F11s tumor volume” value [2, 10]?
A: 494.2 mm^3

Q: What about the “Percent Inhibition” value [2, 10] of the same molecule?
A: 47.2%

Q: What about the “Mean A375P F11s tumor volume” value [2, 11] of the same molecule?
A: 581.5 mm^3

Q: And the “Percent Inhibition” value [2, 11]?
A: 46.6%

Q: What about the “Mean A375P F11s tumor volume” value [2, 12] of the same molecule?
A: 682.0 mm^3

Q: And the “Percent Inhibition” value [2, 12]?
A: 45.6%

Q: What about the “Mean A375P F11s tumor volume” value [2, 13] of the same molecule?
A: 830.5 mm^3

Q: And the “Mean A375P F11s tumor volume” value ([2]; group 3: Compound B 10 mg/kg PO QD, study day 35)?
A: 1,105.5 mm^3

Q: What about the “Mean A375P F11s tumor volume” value [2, 14] of the same molecule?
A: 156.9 mm^3

Q: What about the “Percent Inhibition” value [2, 14] of the same molecule?
A: 8.9%

Q: And the “Percent Inhibition” value [2, 15]?
A: 42.4%

Q: And the “Mean A375P F11s tumor volume” value [2, 16]?
A: 104.1 mm^3

Q: And the “Percent Inhibition” value [2, 16]?
A: 66.5%

Q: And the “Percent Inhibition” value [2, 17]?
A: 74.5%

Q: What about the “Mean A375P F11s tumor volume” value [2, 18] of the same molecule?
A: 94.0 mm^3

Q: What about the “Percent Inhibition” value [2, 18] of the same molecule?
A: 85.3%

Q: What about the “Mean A375P F11s tumor volume” value [2, 19] of the same molecule?
A: 104.4 mm^3

Q: What about the “Percent Inhibition” value [2, 19] of the same molecule?
A: 85.6%

Q: And the “Percent Inhibition” value [2, 20]?
A: 87.6%

Q: And the “Percent Inhibition” value [2, 21]?
A: 87.0%

Q: What about the “Mean A375P F11s tumor volume” value [2, 22] of the same molecule?
A: 148.7 mm^3

Q: And the “Percent Inhibition” value [2, 22]?
A: 88.1%

Q: What about the “Mean A375P F11s tumor volume” value [2, 23] of the same molecule?
A: 166.1 mm^3

Q: And the “Mean A375P F11s tumor volume” value [2, 25]?
A: 207.6 mm^3

Q: What about the “Mean A375P F11s tumor volume” value [3, 6] of the same molecule?
A: 189.5 mm^3

Q: What about the “Mean A375P F11s tumor volume” value [3, 15] of the same molecule?
A: 144.2 mm^3

Q: And the “Mean A375P F11s tumor volume” value [3, 17]?
A: 99.5 mm^3

Q: And the “Mean A375P F11s tumor volume” value [3, 20]?
A: 116.4 mm^3

Q: And the “Mean A375P F11s tumor volume” value [3, 21]?
A: 142.1 mm^3

Q: What about the “Mean A375P F11s tumor volume” value [3, 24] of the same molecule?
A: 168.1 mm^3
